Like-named read-outs stand apart in the source and are kept apart here.
Legend:
Format in all cases: cell-based
[1] = test system: T47D cells expressing mutant PI3Ka (H1047R); assay: In vitro cell proliferation, T47D cells (CellTiter-Glo); settings: inhibition of proliferation, read-out: Avg T-47D EC50
Procedure, shortened: (§1)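 1,500 cells/well seeded onto pre-stamped 10-pt dilution plates; T47D in RPMI + 10% FBS + insulin 0.2 units/mL, SKBR3 in McCoys 5a + 10% FBS. 72 h, 37 °C, 5% CO2. CTG readout. 0% = 0.1% DMSO, 100% = 10 uM Alpelisib; sigmoidal fit gives EC50.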

[2] = test system: phosphorylation of AKT (pAKT) in SKBR3 cells express WT PI3Ka; assay: In vitro cell pAKT (Ser473) HTRF, SKBR3 cells; settings: cellular pAKT
Procedure, shortened: (§2)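 T47D cells (RPMI, 10% FBS, 0.2 units/mL insulin) or SKBR3 cells (McCoy's 5a, 10% FBS) were seeded onto 10-point compound dilutions and incubated 6 h at 37 °C. After lysis, pAKT was detected overnight by HTRF (Eu cryptate/d2). IC50 was fitted from % inhibition relative to 0.1% DMSO and 10 uM alpelisib controls.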

[3] = test system: SKBR3 cells express WT PI3Ka; assay: In vitro cell proliferation, SKBR3 cells (CellTiter-Glo); settings: inhibition of proliferation
Procedure, shortened: as §1

[4] = test system: phosphorylation of AKT (pAKT) in T47D cells expressing mutant PI3Ka (H1047R); assay: In vitro cell pAKT (Ser473) HTRF, T47D cells; settings: cellular pAKT, T47D cells, mutant PI3Ka (H1047R), 6 hours, read-out: Avg T-47D IC50
Procedure, shortened: as §2

Row | SMILES | EC50 ([1]; Homo sapiens, T47D, 72 h) | IC50 ([2]; Homo sapiens, SK-BR-3, 6 h) | EC50 ([3]; Homo sapiens, SK-BR-3, 72 h) | IC50 ([4]; Homo sapiens, T47D, 6 h) | EC50 ([1]; 72 hours) | IC50 ([2]; 6 hours) | EC50 ([3]; 72 hours) | IC50 [4]
1 | Cc1cc([C@@H](C)Nc2ccccc2C(=O)O)c2cc(-c3ccc(Oc4ccc(F)cc4)nc3)n(C)c(=O)c2c1 [Example 194] |  |  |  |  | 500 to 2000 nM | > 15000 nM | > 15000 nM | 1 to 500 nM
2 | Cc1cc([C@@H](C)Nc2ccccc2C(=O)O)c2cc(N3CC4(CCCN(CC(F)(F)F)C4)C3)n(C)c(=O)c2c1 [Example 195] |  |  |  |  | 500 to 2000 nM | > 15000 nM | > 15000 nM | 1 to 500 nM
3 | Cc1cc([C@@H](C)Nc2ccccc2C(=O)O)c2cc(N3CCN(c4cccc(C)n4)CC3)n(C)c(=O)c2c1 [Example 196] |  |  |  |  | 1 to 500 nM | 2000 to 15000 nM | > 15000 nM | 1 to 500 nM
4 | Cc1cc([C@@H](C)Nc2ccccc2C(=O)O)c2cc(N3CCN(Cc4cnn(C)c4)CC3)n(C)c(=O)c2c1 [Example 200] | 500 to 2000 nM | > 15000 nM | > 15000 nM | 500 to 2000 nM |  |  |  | 
5 | Cc1cc([C@@H](C)Nc2ccccc2C(=O)O)c2cc(-c3ccc(O[C@H]4C[C@@H](F)C4)nc3)n(C)c(=O)c2c1 [Example 202] |  |  |  |  | 1 to 500 nM | > 15000 nM | > 15000 nM | 1 to 500 nM
6 | Cc1cc([C@@H](C)Nc2ccccc2C(=O)O)c2cc(N3CC4CC(C3)N4CC(F)(F)F)n(C)c(=O)c2c1 [Example 207] | 1 to 500 nM | > 15000 nM | > 15000 nM | 1 to 500 nM |  |  |  | 
7 | Cc1cc([C@@H](C)Nc2ccccc2C(=O)O)c2cc(-c3ccc(C)nc3C)n(C)c(=O)c2c1 [Example 209] | 500 to 2000 nM | > 15000 nM | > 15000 nM | 1 to 500 nM |  |  |  | 
8 | Cc1cc([C@@H](C)Nc2ccccc2C(=O)O)c2cc(-c3cnc(C)c(C)c3)n(C)c(=O)c2c1 [Example 210] | 500 to 2000 nM | > 15000 nM | > 15000 nM | 1 to 500 nM |  |  |  | 
9 | Cc1cc([C@@H](C)Nc2ccccc2C(=O)O)c2cc(-c3cnn(C4CC4)c3)n(C)c(=O)c2c1 [Example 212] | 500 to 2000 nM | > 15000 nM | > 15000 nM | 500 to 2000 nM |  |  |  | 
10 | Cc1cc(C(C)Nc2ccccc2C(=O)O)c2cc(-c3ccc(OC4CC(F)C4)nc3)n(C)c(=O)c2c1 (centres unmarked) [Example 217] |  |  |  |  | 1 to 500 nM | > 15000 nM | 2000 to 15000 nM | 1 to 500 nM

Continued, values first:

Row | EC50 ([1]; Homo sapiens, T47D, 72 h) | IC50 ([2]; Homo sapiens, SK-BR-3, 6 h) | EC50 ([3]; Homo sapiens, SK-BR-3, 72 h) | IC50 ([4]; Homo sapiens, T47D, 6 h) | EC50 ([1]; 72 hours) | IC50 ([2]; 6 hours) | EC50 ([3]; 72 hours) | IC50 [4] | SMILES
11 | 500 to 2000 nM | > 15000 nM | > 15000 nM | 1 to 500 nM |  |  |  |  | COCC1CN(c2cc3c([C@@H](C)Nc4ccccc4C(=O)O)cc(C)cc3c(=O)n2C)C1 [Example 193]
12 | 1 to 500 nM | 2000 to 15000 nM | > 15000 nM | 1 to 500 nM |  |  |  |  | Cc1cc([C@@H](C)Nc2ccccc2C(=O)O)c2cc(N3CCN(c4ccccc4C#N)CC3)n(C)c(=O)c2c1 [Example 197]
13 | 500 to 2000 nM | > 15000 nM | > 15000 nM | 500 to 2000 nM |  |  |  |  | Cc1cc([C@@H](C)Nc2ccccc2C(=O)O)c2cc(N3CCN(c4ncnn4C)CC3)n(C)c(=O)c2c1 [Example 198]
14 | 1 to 500 nM | 2000 to 15000 nM | 2000 to 15000 nM | 1 to 500 nM |  |  |  |  | Cc1cc([C@@H](C)Nc2ccccc2C(=O)O)c2cc(N3CCN(c4ncccc4C#N)CC3)n(C)c(=O)c2c1 [Example 199]
15 | 1 to 500 nM | > 15000 nM | > 15000 nM | 1 to 500 nM |  |  |  |  | Cc1cc([C@@H](C)Nc2ccccc2C(=O)O)c2cc(-c3ccc(OCC(F)F)nc3)n(C)c(=O)c2c1 [Example 201]
16 | 1 to 500 nM | > 15000 nM | > 15000 nM | 1 to 500 nM |  |  |  |  | Cc1cc([C@@H](C)Nc2ccccc2C(=O)O)c2cc(N3CCN(C(=O)OC4CC4)CC3)n(C)c(=O)c2c1 [Example 203]
17 | 1 to 500 nM | 500 to 2000 nM | 2000 to 15000 nM | 1 to 500 nM |  |  |  |  | Cc1cc([C@@H](C)Nc2ccccc2C(=O)O)c2cc(N3CCN(c4cccnc4C)CC3)n(C)c(=O)c2c1 [Example 206]
18 | 1 to 500 nM | > 15000 nM | > 15000 nM | 1 to 500 nM |  |  |  |  | Cc1cc([C@@H](C)Nc2ccccc2C(=O)O)c2cc(-c3ccc(OCC4CC4)nc3)n(C)c(=O)c2c1 [Example 208]
19 | 1 to 500 nM | > 15000 nM | > 15000 nM | 1 to 500 nM |  |  |  |  | Cc1cc([C@@H](C)Nc2ccccc2C(=O)O)c2cc(N3CCN(Cc4ccnc(C)n4)CC3)n(C)c(=O)c2c1 [Example 214]
20 | 1 to 500 nM | > 15000 nM | > 15000 nM | 1 to 500 nM |  |  |  |  | Cc1cc([C@@H](C)Nc2ccccc2C(=O)O)c2cc(-c3ccc(OC4CC4)nc3)n(C)c(=O)c2c1 [Example 216]

Source: US20260078103A1, “ISOQUINOLONES AS PI3K INHIBITORS” (OnKure, Inc., priority 2022, published 2026)
